Experimental data: patent publication US9192667B2, “Method of treating cancer by administering CSF-1R antibodies and a TLR9 agonist” (Hoffmann-La Roche Inc., priority 2013, dated 2015)

How the values were obtained:
[1] = SCID mouse; cited from earlier work
[2] = system: MC38 mouse CRC in vivo model; assay: Tumor growth inhibition in subcutaneous syngeneic MC38 colon carcinoma model; details: antibody 30 mg/kg i.p. weekly, CpG ODN 1826 100 μg peritumoral 1×; for TGI (day 24): versus control antibody
Description: Additionally to the assessment of median tumor volume after 2 weeks of treatment the progression of individual tumors in the study was followed until progression ≧700 mm3 (FIG. 1 (CpG is TLR9 agonist CpG ODN 1826) and Table 11)

[3] = phase 1/1 I clinical study; cited from earlier work
lymphoma = details: phase 1/1 I clinical study; cited from earlier work

Q: Which “antitumor effects” value [1] does the source give for “CpG-685: synthetic, 21-mer fully phosphorothioated CpG ODN 5′-tcgtcgacgtcgttcgttctc-3′ (SEQ ID NO: 93), SBI Biotech (DNA TCGTCGACGTCGTTCGTTCTC; DNA, all phosphorothioate, methylation of C not given here)” here?
A: showed antitumor effects

Q: Which results are given for CpG ODN 1826?
A: Median time to progression TV > 700 mm3 [2]: 24 days; TCR (day 24) [2]: 0.28; TGI (day 24) [2]: 74%; TGI (day 24) ([2]; listed as TLR9 agonist (CpG)): 73%

Q: For “d(P-Thio)(TCGTCGTTTTGTCGTTTTGTCGTT)DNA [CpG-7909]”, which “tolerability” value [3] is on record?
A: well tolerated

Q: What about the “antilymphoma activity” value (lymphoma) of the same substance?
A: antilymphoma activity
